Measured values reported in patent EP2098226A1, “AKAP-PKA interaction inhibitors for use in the treatment of heart diseases” (Forschungsverbund Berlin e.V., priority 2008, dated 2009).
Read-outs that look alike come from different tables or passages of the source. Values belong to the compound of their own block, whether it stands above or below them.

How the values were obtained:
[1] = system: AKAP18δ und regulatorischen RIIα- und RIIβ-Untereinheiten; experiment: Oligomerisation of AKAP18δ and RII subunits in neonatal cardiomyocytes (cAMP-agarose precipitation, Western blot); type: cell-based; settings: neonatal cardiomyocytes incubated with the substances
Description: Neonatale Kardiomyozyten wurden mit den Substanzen in den angegebenen Konzentrationen inkubiert. A. Anschließend wurde eine cAMP-Agarose-Präzipitation und ein Western Blot (WB) zur Detektion von AKAP18δ durchgeführt. Als Negativkontrolle wurde die cAMP-Agarose mit cAMP inkubiert, das die Bindung von R-Untereinheiten an die Agarose verhindert. B. Detektion von RIIβ in Lysaten von neonatalen Kardiomyozyten. C. Detektion von AKAP18δ, RIIα und RIIβ nach Inkubation mit den Substanzen.

PKA [2] = experiment: PKA activation in neonatal cardiomyocytes (Peptag phosphorylation); type: cell-based, Ratte; settings: 300µM for 30 min, densitometry
Description: (§1) Die zeigt, dass die Substanzen 1016,1020,1021 und 1027 PKA in neonatalen Kardiomyozyten aus der Ratte aktivieren. Die Zellen wurden mit DMSO (Kontrolle), die Substanzen in 300µM Konzentrationen, oder dem Adenylylzyklaseaktivator Forskolin für 30 min inkubiert. Die Aktivierung der PKA wurde anhand der Phosphorylierung des fluoreszierenden Substratpeptids Peptag verfolgt und quantifiziert. Die semiquantitative Analyse der Peptag-Peptidephosphorylierung wurde densitometrisch vorgenommen. Angegeben sind relative densitometrische Einheiten (RDU; Mittelwerte ± SD).
as §1, with “zeigt,” for “Die zeigt,”, “Forskolin (FSK)” for “Forskolin”

[3] = system: Interaktionen von regulatorischen RII-Untereineinheiten der PKA (RIIα und β) mit AKAP150, dem AKAP Yotiao und AKAP18δ; experiment: cAMP-agarose precipitation with Western blot detection of precipitated AKAPs; type: cell-based; settings: neonatal cardiomyocytes; FMP-API-1 100 µM; precipitated AKAPs detected by Western blot
Description: Die Verbindungen 18882 (FMP-API-1), 1016, 1020 und 1021 (siehe Tabelle 1) hemmen die Interaktionen von regulatorischen RII-Untereineinheiten der PKA (RIIα und β) mit AKAP150, dem AKAP Yotiao und AKAP18δ. Es wurden cAMP-Agarose-Präzipitationen mit neonatalen Kardiomyozyten in Ab- oder Anwesenheit des AKAP-PKA-Interaktionshemmers FMP-API-1 (100 µM), einer Kontrollsubstanz (100 µM) und cAMP (50 mM) durchgeführt. cAMP-Agarose bindet regulatorische Untereinheiten der PKA und deren Bindungspartner, inklusive AKAP. Präzipitierte AKAP wurden mit spezifischen Antikörpern mittels Western Blot detektiert.

[4] = biological target: Bindung von RIIα an Peptide, die aus der PKA-Bindedomäne von AKAP18δ abgeleitet sind (AKAP18δ-L314E) (Homo sapiens, UniProt P13861); experiment: Biacore: inhibition of RIIα binding to immobilised peptide AKAP18δ-L314E; settings: for inhibition at 100 µM: read-out: maximale Hemmung (RIIα-Bindung an das Peptid AKAP18δ-L314E); for Hemmung der Interaktion (RIIα-Bindung an das Peptid AKAP18δ-L314E): preincubation of RIIα for 2 h
Description: Für das Experiment wurden Oberflächen mit dem Peptid beschichtet, mit RIIα-Untereinheiten inkubiert und die Reaktion in Biacore-Messungen verfolgt.

Phopholamban (PLB) = experiment: Phospholamban phosphorylation in neonatal cardiomyocytes (Western blot); type: cell-based; settings: 300 µM for 5 min; p-PLB relative to Calsequestrin
Description: Die Zellen wurden mit DMSO (control), dem β-Adrenozeptoragonisten Isoproterenol (ISO) oder dem AKAP-PKA-Interaktionshemmer FMP-API-1 bzw. dessen Derivaten (300 µM) für 5 min. inkubiert, anschließend lysiert und im Western Blot wurde phosphoryliertes Phospholamban (p-PLB) mittels eines spezifischen anti-Phospholambanantikörpers detektiert. Calsequestrin, ein Protein des sarkoplasmatischen Retikulums, dient als Ladungskontrolle. Für die Quantifizierung (densitometrische Auswertung) wurde die p-PLB-Menge auf die Menge von Calsequestrin bezogen. Angegeben sind relative densitometrische Einheiten (RDU; Mittelwerte ± SEM, drei unabhängige Experimente).

[5] = system: kultivierten adulten Kardiomyozyten; experiment: Contractility of cultured adult cardiomyocytes (Fura-2, field stimulation); type: cell-based; settings: 10µM; calcium fluxes and cell shortening parameters
Description: Die Substanzen 18882 (FMP-API-1) und 1016 steigern die Kontraktilität an kultivierten adulten Kardiomyozyten (positiv inotroper Effekt). Die Zellen wurden isoliert, mit Fura-2 beladen und einer Feldstimulation ausgesetzt. Bestimmt wurden die Calciumfluxe und Zellverkürzungsparameter (cell shortening parameters) unter basalen Bedingungen und in Gegenwart von DMSO, Isoproterenol , FMP-API-1 (10µM) oder 1016 (10µM). Dargestellt sind Mittelwerte ± SEM.

[6] = system: neonatalen Kardiomyozyten aus der Ratte; experiment: cAMP level in neonatal cardiomyocytes, radioimmunoassay (RIA); type: cell-based; settings: substances 50 µM in the presence of Isoproterenol 100 nM
Description: Die Substanzen 18882 (FMP-API-1), 1004, 1010, 1016, 1020, 1021 und 1023 steigern in Gegenwart des β-Adrenozeptoragonisten Isoproterenol den cAMP-Spiegel in neonatalen Kardiomyozyten aus der Ratte. Die Zellen wurden unbehandelt belassen, mit Isoproterenol allein (100 nM), mit Isoproterenol (100 nM) und den Substanzen (50 µM) oder mit Forskolin inkubiert. Der cAMP-Spiegel wurde durch Radioimmuno-Assay (RIA) bestimmt.

[7] = system: neonatalen Kardiomyozyten aus der Ratte; experiment: cAMP level in neonatal cardiomyocytes, ELISA-based assay; type: cell-based; settings: substances 50 µM in the presence of Isoproterenol 100 nM
Description: Die Substanzen 1025, 1026, 1027 und 1028 steigern in Gegenwart des β-Adrenozeptoragonisten Isoproterenol den cAMP-Spiegel in neonatalen Kardiomyozyten aus der Ratte. Die Zellen wurden unbehandelt belassen, mit Isoproterenol allein (100 nM) oder mit Isoproterenol (100 nM) und den Substanzen (50 µM) inkubiert. Der cAMP-Spiegel wurde durch einen ELISA-basierten Assay bestimmt.

RIIα = RIIα (Homo sapiens, UniProt P13861); experiment: Biacore: direct binding of substances to covalently immobilised RIIα; settings: for Bindungen des Peptids Ht31 und der Substanz an RIIα: RIIα surface incubated with peptide Ht31 and additionally with the substance; for Bindung an RIIα: surfaces covalently coated with RIIα, incubated with the substances
Description: Biacore-Messungen zum Nachweis der Bindung der Substanz 1026 an RIIα. Es wurden Oberflächen durch kovalente Bindung mit RIIα beschichtet und mit der Substanz in den angegebenen Konzentrationen inkubiert.
Die Bindungen des Peptids Ht31 und der Substanz 1026 an RIIα sind additiv. Es wurden Oberflächen durch kovalente Bindung mit RIIα beschichtet und mit dem Peptid Ht31, das an die sog. Dimerisierungs- und docking-Domäne (DD-Domäne) von regulatorischen Untereinheiten der PKA bindet, inkubiert.
Es wurden Oberflächen durch kovalente Bindung mit RIIα beschichtet und mit den Substanzen inkubiert.

PKA [8] = biological target: PKA (Homo sapiens, UniProt P31323); experiment: PKA activation in vitro (Peptag substrate peptide phosphorylation); type: biochemical; settings: 1 mM, catalytic subunits with or without RIIβ subunits
Description: Die Substanz 18882 (FMP-API-1) aktiviert PKA in vitro. Das Experiment wurde wie in Abb. 24 dargestellt durchgeführt. Hier wurde zusätzlich mit AKAP18δ inkubiert. Katalytische Untereinheiten der PKA wurden in An- oder Abwesenheit von regulatorischen RIIβ-Untereinheiten mit der Substanz 18882 (FMP-API-1; 1 mM) inkubiert. Die Aktivierung der PKA wurde anhand der Phosphorylierung des fluoreszierenden Substratpeptids Peptag verfolgt und quantifiziert. Die semiquantitative Analyse der Peptag-Peptidphosphorylierung wurde densitometrisch vorgenommen (Mittelwerte ± SEM). Die Gegenwart des AKAP hat einen geringen zusätzlich Einfluß auf den Effekt der Substanz 18882.

Rattenherzen = experiment: Langendorff isolated heart: left ventricular pressure, contraction and relaxation rates; parameters: species or system Ratte; settings: perfused rat hearts, 10 µM, n ≥ 8 hearts per condition
Description: Bestimmung der linksventrikulären Druckentwicklung, der maximalen Kontraktions- (CR) und Relaxationsraten (RR) von Rattenherzen (in %) in einer Langendorff-Herz-Apparatur.
zeigt den Einfluss von Isoproterenol, DMSO, den Substanzen 1016, 1020 und 1021 auf die relative Zellgröße der Kardiomyozyten bezogen auf die durchschnittliche Zellgröße von Kontrollzellen (%). Kardiomyozyten wurden für 48h entweder unbehandelt belassen oder mit 15 µM Isoproterenol als Kontrollen inkubiert. Da die Kardiomyozyten zusätzlich zu der Substanz mit höchstens 0,1% DMSO inkubiert wurden, wurden Kardiomyozyten nur mit 0,1% für 48h inkubiert. Des Weiteren wurde ein möglicher Effekt von DMSO auf die Isoproterenolinduzierte Hypertrophie untersucht und die Zellen demnach mit 0,1% DMSO für 20 min präinkubiert und anschließend mit 15 µM Isoproterenol für 48 h inkubiert. Außerdem wurden Kardiomyozyten mit den Substanzen 1016, 1020 und 1021 in den Konzentrationen 3, 10, 30, 50 oder 75 µM für 48 h ohne Isoproterenol inkubiert. Des Weiteren wurden Kardiomyozyten mit den Substanzen 1016, 1020 und 1021 in den Konzentrationen 3, 10, 30, 50 oder 75 µM präinkubiert. Dann wurde Isoproterenol (15 µM) zu den Endkonzentrationen von 3, 10, 30, 50 oder 75 µM zugegeben und die Kardiomyozyten damit für 48 h inkubiert. Nach der Inkubation mit den Substanzen wurde α-Aktinin immunfluoreszenzmikroskopisch dargestellt. […]

Bindung von RIIα an Peptide, die aus der PKA-Bindedomäne von AKAP18δ abgeleitet sind (AKAP18δ-L314E), sequence (P13861 whole entry, stated change not applied): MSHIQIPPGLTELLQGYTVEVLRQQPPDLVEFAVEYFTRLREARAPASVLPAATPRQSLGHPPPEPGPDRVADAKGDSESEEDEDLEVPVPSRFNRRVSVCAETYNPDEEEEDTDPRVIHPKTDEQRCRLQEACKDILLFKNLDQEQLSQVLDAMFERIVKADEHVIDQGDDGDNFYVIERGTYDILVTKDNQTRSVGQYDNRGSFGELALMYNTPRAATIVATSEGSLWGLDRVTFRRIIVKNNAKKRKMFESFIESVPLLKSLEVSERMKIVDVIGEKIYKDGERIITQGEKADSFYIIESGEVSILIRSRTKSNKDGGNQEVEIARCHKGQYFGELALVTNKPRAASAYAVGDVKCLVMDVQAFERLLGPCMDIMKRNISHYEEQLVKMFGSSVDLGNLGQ
RIIα, sequence (P13861 whole entry): as the sequence (P13861 whole entry, stated change not applied) above
PKA (Homo sapiens, UniProt P31323), sequence (P31323 whole entry): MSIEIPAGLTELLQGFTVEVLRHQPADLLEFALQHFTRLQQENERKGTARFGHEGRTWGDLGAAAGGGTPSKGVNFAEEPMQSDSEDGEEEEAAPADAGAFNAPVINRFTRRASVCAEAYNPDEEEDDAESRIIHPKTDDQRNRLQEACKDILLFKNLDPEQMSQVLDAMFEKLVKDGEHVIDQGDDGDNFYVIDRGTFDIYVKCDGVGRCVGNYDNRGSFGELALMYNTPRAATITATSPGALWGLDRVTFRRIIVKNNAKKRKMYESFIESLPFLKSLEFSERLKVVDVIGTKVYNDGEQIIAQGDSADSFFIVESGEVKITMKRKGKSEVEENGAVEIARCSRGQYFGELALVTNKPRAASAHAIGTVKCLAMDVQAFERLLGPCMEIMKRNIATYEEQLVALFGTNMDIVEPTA

Compound: Nc1cc(Cc2ccc(O)cc2)ccc1O [Verbindung 1016, 3-Amino-4,4'-dihydroxydiphenylmethan]
- Oligomerisierung (Oligomers) von AKAP18δ und regulatorischen RIIα- und RIIβ-Untereinheiten [1]: induzieren die Oligomerisierung
- Aktivierung der PKA in neonatalen Kardiomyozyten (PKA [2]): aktivieren
- Hemmung der Interaktionen von regulatorischen RII-Untereineinheiten der PKA (RIIα und β) mit AKAP150, Yotiao und AKAP18δ [3]: hemmen
- inhibition at 100 µM ([4]; concentration 100 µM): ~60%
- Hemmung der Interaktion (RIIα-Bindung an das Peptid AKAP18δ-L314E) [4]: ~50%
- Phosphorylierung von Phopholamban (PLB) (Phopholamban (PLB)): induzieren eine Zunahme
- Kontraktilität (positiv inotroper Effekt) [5]: steigern
- cAMP-Spiegel [6]: steigern

Compound: CC(c1ccc(O)c(N)c1)c1ccc(O)c(N)c1 [Verbindung 1020, 1,1-Bis-(3-Amino-4-hydroxyphenyl)-ethan]
- Oligomerisierung (Oligomers) von AKAP18δ und regulatorischen RIIα- und RIIβ-Untereinheiten [1]: induzieren die Oligomerisierung
- Aktivierung der PKA in neonatalen Kardiomyozyten (PKA [2]): aktivieren
- Hemmung der Interaktionen von regulatorischen RII-Untereineinheiten der PKA (RIIα und β) mit AKAP150, Yotiao und AKAP18δ [3]: hemmen
- Hemmung der Interaktion (RIIα-Bindung an das Peptid AKAP18δ-L314E) [4]: ~50%
- inhibition at 100 µM [4]: ~50%
- Phosphorylierung von Phopholamban (PLB) (Phopholamban (PLB)): induzieren eine Zunahme
- cAMP-Spiegel [6]: steigern

Compound: CC(c1ccc(O)cc1)c1ccc(O)c(N)c1 (stereo not shown) [Verbindung 1021, 3-Amino-1,1-bis-(4-hydroxyphenyl)-ethan]
- Oligomerisierung (Oligomers) von AKAP18δ und regulatorischen RIIα- und RIIβ-Untereinheiten [1]: induzieren die Oligomerisierung
- Aktivierung der PKA in neonatalen Kardiomyozyten (PKA [2]): aktivieren
- Hemmung der Interaktionen von regulatorischen RII-Untereineinheiten der PKA (RIIα und β) mit AKAP150, Yotiao und AKAP18δ [3]: hemmen
- Hemmung der Interaktion (RIIα-Bindung an das Peptid AKAP18δ-L314E) [4]: ~40%
- inhibition at 100 µM [4]: ~50%
- Phosphorylierung von Phopholamban (PLB) (Phopholamban (PLB)): induzieren eine Zunahme
- cAMP-Spiegel [6]: steigern

Compound: COc1ccc(Cc2ccc(OC)c(N)c2)cc1N [Verbindung 1030]
- Bindung an RIIα (RIIα): konzentrationsabhängigen Bindung

Continued, in another order:

- Bindungen des Peptids Ht31 und der Substanz an RIIα (RIIα): additiv
- Bindung an RIIα (RIIα): konzentrationsabhängigen Bindung
Compound: Oc1ccc(Cc2ccccc2)cc1O [Verbindung 1027, 4-Benzyl-pyrocatechol]
- Aktivierung der PKA in neonatalen Kardiomyozyten (PKA [2]): aktivieren
- cAMP-Spiegel [7]: steigern

- Bindungen des Peptids Ht31 und der Substanz an RIIα (RIIα): additiv
- Bindung an RIIα (RIIα): konzentrationsabhängigen Bindung
Compound: O=C(c1ccc(O)c(O)c1)c1ccc(O)c(O)c1 [Verbindung 1028, Bis-(3,4-dihydroxy-phenyl)-methanon]
- cAMP-Spiegel [7]: steigern

- Aktivierung der PKA in vitro (PKA [8]): aktiviert
Compound: Nc1cc(Cc2ccc(O)c(N)c2)ccc1O [Verbindung 18882, 3,3'-Diamino-4,4'-dihydroxydiphenylmethan, reference compound]
- Oligomerisierung (Oligomers) von AKAP18δ und regulatorischen RIIα- und RIIβ-Untereinheiten [1]: induzieren die Oligomerisierung
- Hemmung der Interaktionen von regulatorischen RII-Untereineinheiten der PKA (RIIα und β) mit AKAP150, Yotiao und AKAP18δ [3]: hemmen
- Phosphorylierung von Phopholamban (PLB) (Phopholamban (PLB)): induzieren eine Zunahme
- Kontraktilität (positiv inotroper Effekt) [5]: steigern
- cAMP-Spiegel [6]: steigern
- Zunahme der gemessenen Parameter (linksventrikuläre Druckentwicklung, maximale Kontraktions- (CR) und Relaxationsraten (RR)) (Rattenherzen): ~17%
